According to patent US20250051391A1, “PEPTIDE INHIBITORS AND METHODS FOR INHIBITING PROTEIN AGGREGATION IN NEURONS AND NEURODEGENERATIVE DISEASES” (THE GOVERNING COUNCIL OF THE UNIVERSITY OF TORONTO, priority 2021, published 2025):

system: HEK293 cells overexpressing A53T a-syn; experiment: Cytotoxicity screen of lentiviral 7-mer peptide library, Alpha syn A53T cells under MG132; assay type: cell-based, human; conditions: not given
Source text: A screening system to discover candidate peptides to perturb endogenous PPIs based on libraries of short linear interaction motifs that mediate a large fraction (˜30%) of human PPIs (10-12) was recently developed. Here, a lentiviral library of 50,549 7-mer peptide motifs (13) on a green fluorescent protein (GFP) scaffold (FIG. 1A) was used. Cells in a pooled format were infected and the amino acid sequence of each peptide served as its own barcode. By using a low multiplicity of infection followed by puromycin selection, each infected cell expressed one unique GFP-peptide. Peptides that reduced a-syn-mediated cytotoxicity or a-syn oligomers in parallel (FIG. 1A), were screened for.
To cause cytotoxicity relevant to PD, proteostatic stress in HEK293 cells was induced by inhibiting the proteasome with MG132 and inducing the overexpression of human a-syn (WT) from idiopathic PD in one screen and the more toxic A53T mutant from familial PD in a second screen. The combination of a-syn overexpression and pharmacological proteasome inhibition led to death of most cells, with only those that expressed a protective peptide surviving. By extracting genomic DNA from the surviving cells and amplifying the peptide coding sequences, the protective peptides (FIG. 1A) were identified.
(§1) PCR primers that included the Illumina adaptor sequences were used to amplify peptide coding sequences recovered from selection and cell sorting. Results were demultiplexed, and peptide counts were tallied. After demultiplexing, only reads with an average quality Phred score of >30 were selected, and frequencies were calculated. Finally, the reads were then normalized to the total number of peptides read for that sample population, and a scalar factor was applied. In parallel, ˜25 individual colonies were Sanger sequenced to compare to the NGS data.
(§2) Lentiviruses were made in a 15 cm dish format by transfecting packaging cells (293T) with a three-plasmid system as previously described. Viral transduction of HEK293T cells, tet-off split luciferase a-syn cells, tet-off parent cells, and SH-SY5Y cells were performed with a multiplicity of infection of 0.3 (MOI=0.3). Infected cells were selected in puromycin-containing medium to eliminate uninfected cells and three aliquots of cells were collected for sampling of the initial (TO) cell population. Cells were treated with MG132 at concentrations of 0 μM, 10 μM, 25 μM or 50 μM. For the cell viability screen, surviving cells were collected and gDNA was extracted for identification of peptide inhibitors of cell toxicity. For the inhibition of a-syn aggregation screen, split YFP-a-syn constructs were transfected following stable expression of the peptides. Cells were sorted based on their GFP fluorescence intensities with a FACSVantage SE cell sorter (BD Bioscience).
Genomic DNA (gDNA) from peptide expressing cells at different time-points was extracted using QIAamp DNA Blood Mini Kit. PCR amplifications of peptides from gDNA in parallel with the lentiviral plasmid library (naïve library) were performed using indexed Illumina PCR primers to incorporate both the Illumina adapter sequences and indexing sequences. Each 50 μl reaction contained 3.2 μg of template, 2×PCR buffer, 2× enhancer solution, 300 μM each dNTP, 900 nM each of Adapter A (5′-[…]-[…]-3′) (SEQ ID NO: 42) and Adapter B (5′-[…]-[…]-3′) (SEQ ID NO: 43), 1 mM MgSO4, 3.75 units of Platinum Pfx polymerase, and water to 50 μl. The PCR reaction was performed by denaturing at 94° C. for 5 minutes, followed by cycling (94° C. for 30 seconds, 65° C. for 30 seconds, 68° C. for 30 seconds)×28 cycles, 68° C. for 5 minutes, then cooling to 4° C. The resulting 244 bp product was purified by electrophoresis in 2% agarose followed by gel extraction. Peptide libraries were quantified using Quant-It assay (Invitrogen) and pooled. […]

Row | Substance | Slope Norm Reads
1 | QAELSNS [7-mer library hit, A53T screen] | 0.69
2 | EDVNKCV [7-mer library hit, A53T screen] | 0.68
3 | PAMQIDG [7-mer library hit, A53T screen] | 0.96
4 | QSPSSAW [7-mer library hit, A53T screen] | 0.82
5 | QSVVTAP [7-mer library hit, A53T screen] | 1.38

same assay, conditions: normalized Illumina peptide counts, 0 uM MG132

Row | Substance | Reads 0 uM MG132
6 | QAELSNS [7-mer library hit, A53T screen] | 6
7 | EDVNKCV [7-mer library hit, A53T screen] | 6
8 | PAMQIDG [7-mer library hit, A53T screen] | 32
9 | QSPSSAW [7-mer library hit, A53T screen] | 9
10 | QSVVTAP [7-mer library hit, A53T screen] | 8

same assay, conditions: normalized Illumina peptide counts, 10 µM MG132

Row | Substance | Reads 10 UM MG132
11 | QAELSNS [7-mer library hit, A53T screen] | 8
12 | EDVNKCV [7-mer library hit, A53T screen] | 6
13 | PAMQIDG [7-mer library hit, A53T screen] | 20
14 | QSPSSAW [7-mer library hit, A53T screen] | 45
15 | QSVVTAP [7-mer library hit, A53T screen] | 6

same assay, conditions: normalized Illumina peptide counts, 25 µM MG132

Row | Substance | Reads 25 UM MG132
16 | QAELSNS [7-mer library hit, A53T screen] | 10
17 | EDVNKCV [7-mer library hit, A53T screen] | 13
18 | PAMQIDG [7-mer library hit, A53T screen] | 53
19 | QSPSSAW [7-mer library hit, A53T screen] | 59
20 | QSVVTAP [7-mer library hit, A53T screen] | 37

same assay, conditions: normalized Illumina peptide counts, 50 µM MG132

Row | Substance | Reads 50 UM MG132
21 | QAELSNS [7-mer library hit, A53T screen] | 235
22 | EDVNKCV [7-mer library hit, A53T screen] | 233
23 | PAMQIDG [7-mer library hit, A53T screen] | 337
24 | QSPSSAW [7-mer library hit, A53T screen] | 284
25 | QSVVTAP [7-mer library hit, A53T screen] | 465

system: a-syn oligomers in HEK293 cells; experiment: Oligomers screen (split YFP-a-syn protein fragment complementation, FACS); assay type: cell-based, human; conditions: not given
Source text: To detect a-syn oligomers, a protein fragment complementation assay (PCA) of a-syn oligomerization in HEK293 cells (14) was used. In this assay, human A53T a-syn was fused to either the C- or N-terminal half of yellow fluorescent protein (YFP). No fluorescence is detectable while a-syn exists in monomers but, when a-syn oligomerizes, the two halves of YFP come in close enough proximity to form a functional, spontaneously fluorescent protein. […] By using fluorescence activated cell sorting (FACS), cells expressing Flag-tagged peptides that directly or indirectly interfered with a-syn oligomer formation were isolated and then the peptides were identified from genomic DNA (FIG. 1A). The screens yielded 10 hits (Table 1). The hit with the most reads (i.e., the most abundant) was the same peptide in all screens: IPIQLKA (SEQ ID NO: 1) (PDpep1) (Table 2). […] Lead peptide targets CHMP2B, a member of ESCRT-III
as §1, §2
Cells were harvested by trypsin treatment and centrifuged at 500×g for 5 minutes. The pellet was resuspended in ice-cold PBS and centrifuged again. The pellet was then resuspended at a concentration of 4×10^6 cells/ml in the sorting buffer, which is PBS containing 100 Kunitz Dnase l/ml, 10 μg/ml propidium iodide (Sigma) and 2% FBS. The sorting solution was also supplemented with either 10 μM forskolin, 100 μM 5,6-Dichlorobenzimidazole riboside (DRB, Sigma), 10 μM forskolin (Sigma) and 100 μM DRB or DMSO, as a control. The cells were then sent through a 40 μm filter to remove large clumps and loaded into either a FACScan Flow Cytometer (BD Bioscience) for cell analysis or a FACSVantage SE cell sorter (BD Bioscience) for cell sorting. The cells with positive propidium iodide staining (i.e., dead cells) were first eliminated from the analysis or sorting pool. For cell sorting, the desired population, either the most or least bright EGFP-positive cells, according to the purpose of the experiments (see Results), was sorted into either 15 ml conical tubes or 96-well plates, which both contained complete DMEM culture media.
Genomic DNA (gDNA) from peptide expressing cells at different time-points was extracted using QIAamp DNA Blood Mini Kit. PCR amplifications of peptides from gDNA in parallel with the lentiviral plasmid library (naïve library) were performed using indexed Illumina PCR primers to incorporate both the Illumina adapter sequences and indexing sequences. […]

Row | Substance | Reads Ratio
26 | MQMKLSQ [7-mer library hit, oligomers screen] | 36.15
27 | ECHTKIR [7-mer library hit, oligomers screen] | 39.21
28 | LKRDQPV [7-mer library hit, oligomers screen] | 30.30
29 | NNQYSFV [7-mer library hit, oligomers screen] | 30.04
30 | WPRYPHI [7-mer library hit, oligomers screen] | 47.36
31 | VYLDILG [7-mer library hit, oligomers screen] | 30.55
32 | TQKRELT [7-mer library hit, oligomers screen] | 35.64
33 | LPSKIYK [7-mer library hit, oligomers screen] | 29.53
34 | CFLFQIQ [7-mer library hit, oligomers screen] | 45.32

same assay, conditions: FACS fraction GFP High

Row | Substance | Reads GFP High
35 | MQMKLSQ [7-mer library hit, oligomers screen] | 1
36 | ECHTKIR [7-mer library hit, oligomers screen] | 1
37 | LKRDQPV [7-mer library hit, oligomers screen] | 3
38 | NNQYSFV [7-mer library hit, oligomers screen] | 1
39 | WPRYPHI [7-mer library hit, oligomers screen] | 1
40 | VYLDILG [7-mer library hit, oligomers screen] | 1
41 | TQKRELT [7-mer library hit, oligomers screen] | 1
42 | LPSKIYK [7-mer library hit, oligomers screen] | 1
43 | CFLFQIQ [7-mer library hit, oligomers screen] | 1

same assay, conditions: FACS fraction GFP Inter

Row | Substance | Reads GFP Inter
44 | MQMKLSQ [7-mer library hit, oligomers screen] | 0
45 | ECHTKIR [7-mer library hit, oligomers screen] | 0
46 | LKRDQPV [7-mer library hit, oligomers screen] | 0
47 | NNQYSFV [7-mer library hit, oligomers screen] | 0
48 | WPRYPHI [7-mer library hit, oligomers screen] | 0
49 | VYLDILG [7-mer library hit, oligomers screen] | 0
50 | TQKRELT [7-mer library hit, oligomers screen] | 0
51 | LPSKIYK [7-mer library hit, oligomers screen] | 0
52 | CFLFQIQ [7-mer library hit, oligomers screen] | 0

same assay, conditions: FACS fraction GFP Neg

Row | Substance | Reads GFP Neg
53 | MQMKLSQ [7-mer library hit, oligomers screen] | 70
54 | ECHTKIR [7-mer library hit, oligomers screen] | 76
55 | LKRDQPV [7-mer library hit, oligomers screen] | 118
56 | NNQYSFV [7-mer library hit, oligomers screen] | 58
57 | WPRYPHI [7-mer library hit, oligomers screen] | 92
58 | VYLDILG [7-mer library hit, oligomers screen] | 59
59 | TQKRELT [7-mer library hit, oligomers screen] | 69
60 | LPSKIYK [7-mer library hit, oligomers screen] | 57
61 | CFLFQIQ [7-mer library hit, oligomers screen] | 88
